Measured values from patent US12331040B2 (Karyopharm Therapeutics Inc., priority 2013, dated 2025).

Columns and labels:
Experiment in all cases: MTT cell proliferation assay
Format in all cases: cell-based
MiaPaCa-2 cells = conditions: Homo sapiens, MIA PaCa-2, 72-hour MTT
Method in brief: (§1)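 After overnight attachment at 5,000-10,000 cells per well, cultures receive test compound at eight levels (1 nM to 30 μM) for 72 h, followed by roughly 4 h with MTT. Dissolved formazan is quantified at 490 nm, giving percent inhibition against untreated control.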

CaOV3 cells = conditions: Homo sapiens, Caov-3, 72-hour MTT
Method in brief: as §1

Colo-201 cells = conditions: Homo sapiens, 72-hour MTT
Method in brief: as §1

KG-1 cells = conditions: Homo sapiens, 72-hour MTT
Method in brief: as §1

MCF-12A cells = conditions: Homo sapiens, 72-hour MTT
Method in brief: as §1

NCI-H1299 cells = conditions: Homo sapiens, 72-hour MTT
Method in brief: as §1

HCT116.1 cells = conditions: 72-hour MTT
Method in brief: as §1

THP1 cells = conditions: Homo sapiens, THP-1, 72-hour MTT
Method in brief: as §1

Hs738.st cells = conditions: 72-hour MTT
Method in brief: as §1

PANC-10.05 cells = conditions: Homo sapiens, Panc1005, 72-hour MTT
Method in brief: as §1

LS-180 cells = conditions: Homo sapiens, LS180, 72-hour MTT
Method in brief: as §1

MDA-MB-361 cells = conditions: Homo sapiens, 72-hour MTT
Method in brief: as §1

LS-174T cells = conditions: Homo sapiens, LS174T, 72-hour MTT
Method in brief: as §1

NCI-H889 cells = conditions: Homo sapiens, 72-hour MTT
Method in brief: as §1

BL-40 cells = conditions: 72-hour MTT
Method in brief: as §1

NCI-H508 cells = conditions: Homo sapiens, 72-hour MTT
Method in brief: as §1

HTB-38 cells = conditions: 72-hour MTT
Method in brief: as §1

TF-1 cells = conditions: Homo sapiens, 72-hour MTT
Method in brief: as §1

PATU-8902 cells = conditions: 72-hour MTT
Method in brief: as §1

HCI-H358 cells = conditions: 72-hour MTT
Method in brief: as §1

MDA-MB-415 cells = conditions: Homo sapiens, 72-hour MTT
Method in brief: as §1

MDA-MB-175 cells = conditions: 72-hour MTT
Method in brief: as §1

MM1R cells = conditions: MM.1R, 72-hour MTT
Method in brief: as §1

Tera-1 cells = conditions: 72-hour MTT
Method in brief: as §1

NCI-H1650 cells = conditions: Homo sapiens, 72-hour MTT
Method in brief: as §1

SHSY5Y cells = conditions: Homo sapiens, SH-SY5Y, 72-hour MTT
Method in brief: as §1

Calu-6 cells = conditions: Homo sapiens, 72-hour MTT
Method in brief: as §1

U118MG cells = conditions: Homo sapiens, U-118-MG, 72-hour MTT
Method in brief: as §1

U-937 cells = conditions: Homo sapiens, 72-hour MTT
Method in brief: as §1

CAPAN-1 cells = conditions: Homo sapiens, 72-hour MTT
Method in brief: as §1

T47D cells = conditions: Homo sapiens, 72-hour MTT
Method in brief: as §1

K562 cells = conditions: Homo sapiens, 72-hour MTT
Method in brief: as §1

SW-1116 cells = conditions: Homo sapiens, 72-hour MTT
Method in brief: as §1

HCC-4006 cells = conditions: Homo sapiens, HCC4006, 72-hour MTT
Method in brief: as §1

DU-4475 cells = conditions: Homo sapiens, 72-hour MTT
Method in brief: as §1

SKOV3 cells = conditions: Homo sapiens, SK-OV-3, 72-hour MTT
Method in brief: as §1

A549 cells = conditions: Homo sapiens, 72-hour MTT
Method in brief: as §1

HCC-1428 cells = conditions: Homo sapiens, HCC1428, 72-hour MTT
Method in brief: as §1

Toledo cells = conditions: Homo sapiens, 72-hour MTT
Method in brief: as §1

HCC-827 cells = conditions: Homo sapiens, HCC827, 72-hour MTT
Method in brief: as §1

Nc1ccc(/C=C/C(=O)NCc2cc3cc(-c4ccc(C(=O)N5CCC(F)(F)CC5)cn4)cc(C(F)(F)F)c3o2)cn1 [Compound 585, (E)-3-(6-aminopyridin-3-yl)-N-((5-(5-(4,4-difluoropiperidine-1-carbonyl)pyridin-2-yl)-7-(trifluoromethyl)benzofuran-2-yl)methyl)acrylamide]
IC50 (MiaPaCa-2 cells): 880 nM
IC50 (CaOV3 cells): 2220 nM
IC50 (Colo-201 cells): 560 nM
IC50 (KG-1 cells): 150 nM
IC50 (MCF-12A cells): 380 nM
IC50 (NCI-H1299 cells): 190 nM
IC50 (HCT116.1 cells): > 10000 nM
IC50 (THP1 cells): 20 nM
IC50 (Hs738.st cells): 450 nM
IC50 (PANC-10.05 cells): 870 nM
IC50 (LS-180 cells): 150 nM
IC50 (MDA-MB-361 cells): > 10000 nM
IC50 (LS-174T cells): 8800 nM
IC50 (NCI-H889 cells): 60 nM
IC50 (BL-40 cells): 300 nM
IC50 (NCI-H508 cells): 1460 nM
IC50 (HTB-38 cells): > 10000 nM
IC50 (TF-1 cells): 60 nM
IC50 (PATU-8902 cells): 510 nM
IC50 (HCI-H358 cells): 800 nM
IC50 (MDA-MB-415 cells): 1020 nM
IC50 (MDA-MB-175 cells): > 10000 nM
IC50 (MM1R cells): 190 nM
IC50 (Tera-1 cells): 120 nM
IC50 (NCI-H1650 cells): 530 nM
IC50 (SHSY5Y cells): 120 nM
IC50 (Calu-6 cells): 350 nM
IC50 (U118MG cells): 50 nM
IC50 (U-937 cells): 260 nM
IC50 (CAPAN-1 cells): 90 nM
IC50 (T47D cells): 40 nM
IC50 (K562 cells): 1090 nM
IC50 (SW-1116 cells): 970 nM
IC50 (HCC-4006 cells): 740 nM
IC50 (DU-4475 cells): 90 nM
IC50 (SKOV3 cells): > 10000 nM
IC50 (A549 cells): 570 nM
IC50 (HCC-1428 cells): 4400 nM
IC50 (Toledo cells): 50 nM
IC50 (HCC-827 cells): 780 nM
